A short description of series [1]: amylin agonist activity in vivo: ability to induce hyperlactemia and/or hyperglycemia in mammals. The settings on record: treated test animals. The text has this:
Analogues of amylin can be assayed for activity in the soleus muscle assay described above. Amylin agonist activity of compounds may also be assessed by the ability to induce hyperlactemia and/or hyperglycemia in mammals. […] These preferred compounds include ^25 Pro^26 Val^28,29 Pro-h-amylin, ^25,28,29 Pro-h-amylin, and ^18 Arg^25,28 Pro-h-amylin.

A short description of series [2]: solubility and stability characteristics compared to human amylin. The series is classed as physicochemical.
Series [3] can be described thus: toxicological studies with amylin, two weeks of administration (rats). The series is classed as in vivo. The text has this: (§1) While this proposal is counter to reports that amylin can suppress appetite (which is clearly an undesirable feature for treatment of anorexia or cachectic states), applicant believes that the appetite suppressant effects of amylin is seen only at very high doses and may be short lived. Indeed, applicant has discovered that in toxicological studies with amylin in both rats and dogs, where two weeks of amylin administration were used, there was no reduction in food intake or weight in the animal.

A short description of series [4]: toxicological studies with amylin, two weeks of administration (dogs). The series is classed as in vivo.
Excerpt: as §1

Series [5] can be described thus: administration of amylin to anesthetized rats: blood lactate and blood glucose. The series is classed as in vivo. The text has this: The term "amylin" is used in this application to include compounds defined by Young et al., U.S. application Ser. No. 07/640,478, filed Jan. 10, 1991, now U.S. Pat. No. 5,234,906, entitled "Hyperglycemic Compositions", which (including drawings) is hereby incorporated by reference. For example, it includes the peptide hormone, and species variations of it, referred to as amylin which is synthesized and secreted from the beta cells of the pancreas. Thus, it includes human amylin, cat amylin, dog amylin; rat amylin, mouse amylin, hamster amylin, and guinea pig amylin. Preferably the amylin has an EC50 of less than 1 nM in the rat soleus muscle assay as described in, for example, European Patent Application 88307927.9. Amylin functions along with insulin, which is stored and released from the same pancreatic beta cells, to regulate fuel metabolism. Amylin acts through receptors located in skeletal muscle to increase glycogen turnover in this tissue, believed to result in an increased return to the bloodstream of lactate, which is a major precursor of hepatic gluconeogenesis. Amylin cosecretion with insulin after meals therefore results in restoration of hepatic glycogen content and limits the potential which would otherwise exist for insulin to induce hypoglycemia. […]

In the next series the test system is liver glucose output. The settings on record: rats; cited from earlier work.

This is an account of results in patent US5656590A, “Treatment of anorexia and related states” (Amylin Pharmaceuticals, Inc., priority 1993, dated 1997).

Ends that are not written are not given here.

As to ^18 Arg^25,28 Pro-h-amylin, the “amylin activity in vivo (hyperlactemia, hyperglycemia)” value (from here on “amylin activity in vivo”) in series [1] is reported as “marked hyperlactemia followed by hyperglycemia”. In series [2], the solubility characteristics entry is given as “more desireable” and the stability characteristics result was “more desireable”.
Consider ^25 Pro^26 Val^28,29 Pro-h-amylin, for which, in series [2], the solubility characteristics entry is reported as “more desireable” and the stability characteristics entry was “more desireable”.
For the substance “^25,28,29 Pro-h-amylin (KCNTATCATQRLANFLVHSSNNFGPILPPTNVGSNTY; ends and bridges not checked; cysteine pairing not given here; UniProt P10997 34-70, looked up, variant A25P S28P S29P) [agonist analogue of human amylin]”, the “amylin activity in vivo” value in series [1] was “marked hyperlactemia followed by hyperglycemia”. In addition, in series [2], the solubility characteristics result is “more desireable” and the stability characteristics result is on record as “more desireable”.
Regarding “^28 Pro-h-amylin (KCNTATCATQRLANFLVHSSNNFGAILPSTNVGSNTY; ends and bridges not checked; cysteine pairing not given here; UniProt P10997 34-70, looked up, variant S28P) [agonist analogue of human amylin]”, in series [1], the “amylin activity in vivo” value is “marked hyperlactemia followed by hyperglycemia”.
As to “amylin (KCNTATCATQRLANFLVHSSNNFGAILSSTNVGSNTY; Islet amyloid polypeptide; UniProt P10997 34-70, looked up) [peptide hormone, and species variations of it, synthesized and secreted from the beta cells of the pancreas]”, the “reduction in food intake” value in series [3] and in series [4] was “no reduction” throughout. Besides, the reduction in weight result in series [3] and in series [4] was “no reduction” in each case. For the same substance, the blood lactate levels entry in series [5] is reported as “large increases in blood lactate levels”. Moreover, the blood glucose levels result in series [5] (following the lactate increase) is reported as “increased blood glucose levels”. Also, in the series on liver glucose output, the “effect on insulin-mediated suppression of liver glucose output” value was “reverses insulin-mediated suppression of liver glucose output”.
With “des-^1 Lys-h-amylin (CNTATCATQRLANFLVHSSNNFGAILSSTNVGSNTY; ends and bridges not checked; cysteine pairing not given here; UniProt P10997 34-70, looked up, variant K1*) [agonist analogue of human amylin]”, the “amylin activity in vivo” value in series [1] was “marked hyperlactemia followed by hyperglycemia”.
Still for that read-out and setting: then des-^1 Lys^18 Arg^25,28 Pro-h-amylin, with “marked hyperlactemia followed by hyperglycemia”.
